SMILES strings stand for the structures.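 1) Cells in 96-well plates. 2) Compound, 48 h, 5 concentrations. 3) Linear interpolation between surrounding doses. 4) Unreached endpoint = highest concentration. At the TGI there is no net growth.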 Bounds are passed on as bounds.

The source of these data is PubChem BioAssay (NCI).

Some test systems named below: A498 renal; COLO 205 colon; K-562 leukemia; LOX IMVI melanoma; M14 melanoma; MALME-3M melanoma; OVCAR-8 ovarian; RXF 393 renal; SK-OV-3 ovarian; T-47D breast; U251 CNS; UO-31 renal; SNB-75 CNS.
Experiment in all cases: NCI anticancer screen, dose series, 48 h

As to `CC(C)(N=NC(C)(C)C(=O)NCCO)C(=O)NCCO`, the TGI with A498 renal, with COLO 205 colon, with K-562 leukemia, with LOX IMVI melanoma, in the assay with M14 melanoma and with MALME-3M melanoma was above 100 µM in each case. Further, the TGI in the assay with OVCAR-8 ovarian, in the assay on RXF 393 renal, in the assay on SK-OV-3 ovarian, in the assay with T-47D breast, in the assay with U251 CNS and in the assay with UO-31 renal was above 100 µM throughout.

Turning to `O=C(O)CN(CCNC(=O)OCC1c2ccccc2-c2ccccc21)CCNC(=O)OCC1c2ccccc2-c2ccccc21`, the TGI in the assay on COLO 205 colon is 40.7 µM; with K-562 leukemia, 39.9 µM; in the assay on LOX IMVI melanoma it was 32.4 µM; in the assay on M14 melanoma, 73.4 µM; with MALME-3M melanoma, 38.9 µM; with OVCAR-8 ovarian it was 37.2 µM. Further, the TGI with RXF 393 renal amounted to 67.7 µM; with SK-OV-3 ovarian it was 70.6 µM; in the assay on SNB-75 CNS, 67.5 µM; in the assay on T-47D breast, 49.9 µM; in the assay on U251 CNS, 38.4 µM; with UO-31 renal it was 37.5 µM.

In the case of `O=C(O)c1c2c(cc3c1CC1(Cc4ccccc4C1)C3)CCC2`, the TGI is above 100 µM in the assay on A498 renal; above 100 µM in the assay with COLO 205 colon; above 100 µM with K-562 leukemia; 74.4 µM in the assay with LOX IMVI melanoma; above 100 µM with MALME-3M melanoma; above 100 µM in the assay with OVCAR-8 ovarian. Besides, the TGI in the assay on RXF 393 renal, with SK-OV-3 ovarian, with SNB-75 CNS, in the assay on T-47D breast, in the assay with U251 CNS and in the assay on UO-31 renal was above 100 µM throughout.

As for `COC(=O)C(/C(=N/NC(N)=O)C(=O)Nc1ccc(C)cc1)c1nc2ccc([N+](=O)[O-])cc2[nH]c1=O` (configuration not stated), the TGI in the assay with A498 renal, with K-562 leukemia, with LOX IMVI melanoma, with M14 melanoma, in the assay with MALME-3M melanoma and in the assay on OVCAR-8 ovarian was above 100 µM each time. Further, the TGI in the assay with RXF 393 renal, in the assay with SK-OV-3 ovarian, in the assay on SNB-75 CNS, in the assay on T-47D breast and in the assay on U251 CNS was above 100 µM each time.

Turning to `CN1C(=O)N(c2ccccc2)C2(CCN(CC3COc4ccccc4O3)CC2)C1=O` (configuration not stated), the TGI in the assay on A498 renal, with COLO 205 colon, in the assay with K-562 leukemia, in the assay with LOX IMVI melanoma, with M14 melanoma and in the assay on MALME-3M melanoma was above 100 µM in each case. Moreover, the TGI in the assay on OVCAR-8 ovarian, in the assay on RXF 393 renal, in the assay on T-47D breast, in the assay with U251 CNS and with UO-31 renal was above 100 µM throughout.

For the compound `CC1=C2C(=O)NN=C2CCN1c1ccc(Br)cc1`, the TGI with A498 renal, in the assay on COLO 205 colon, in the assay with LOX IMVI melanoma, in the assay on M14 melanoma, with MALME-3M melanoma and in the assay with OVCAR-8 ovarian was above 100 µM throughout. For the same compound, the TGI in the assay on SK-OV-3 ovarian, with SNB-75 CNS, in the assay on T-47D breast, in the assay with U251 CNS and in the assay on UO-31 renal was above 100 µM in each case.

Regarding `Cc1cc(N(CCC#N)CCC#N)ccc1/C=N/NC(=O)c1cc(Cl)ccc1O`, the TGI in the assay with A498 renal, in the assay with COLO 205 colon, with M14 melanoma, with MALME-3M melanoma, in the assay with OVCAR-8 ovarian and in the assay with RXF 393 renal was above 100 µM throughout. Further, the TGI in the assay with SK-OV-3 ovarian, in the assay with SNB-75 CNS, in the assay with T-47D breast and in the assay with U251 CNS was above 100 µM in each case.

`CC(C)=CCOC(=O)C(C)=[N+]=[N-]`: the TGI with A498 renal, in the assay on COLO 205 colon, in the assay on K-562 leukemia, with LOX IMVI melanoma, in the assay with MALME-3M melanoma and with OVCAR-8 ovarian was above 100 µM each time. In addition, the TGI in the assay on SNB-75 CNS, in the assay with T-47D breast, with U251 CNS and in the assay on UO-31 renal was above 100 µM each time.

`Cc1c(-c2nc3ccccc3[nH]2)c(=O)n(-c2ccccc2)n1C`: the TGI with COLO 205 colon, in the assay on K-562 leukemia, in the assay with LOX IMVI melanoma, in the assay on M14 melanoma, in the assay with MALME-3M melanoma and in the assay with OVCAR-8 ovarian was above 100 µM in each case. Also, the TGI in the assay with RXF 393 renal, in the assay with SK-OV-3 ovarian, in the assay with SNB-75 CNS, with T-47D breast, in the assay on U251 CNS and in the assay on UO-31 renal was above 100 µM each time.

On to `C=C1CC(COc2cc(=O)oc3ccccc23)(c2ccccc2)OC1=O` (configuration not stated), for which the TGI in the assay with A498 renal came to 7.47 µM; in the assay with COLO 205 colon it was 3.1 µM; with K-562 leukemia, 3.1 µM; in the assay on LOX IMVI melanoma, 3.2 µM; in the assay on M14 melanoma it was 3.3 µM; in the assay with MALME-3M melanoma, 3.11 µM. Besides, the TGI in the assay with OVCAR-8 ovarian is 4.87 µM; with SK-OV-3 ovarian it was 16.1 µM; in the assay with SNB-75 CNS, 12.3 µM; with T-47D breast it was 5.27 µM; in the assay on U251 CNS, 25.3 µM; in the assay with UO-31 renal, 16 µM.

In the case of `CCCCN1C(=O)CC2[C@@H]3CCc4cc(OC(C)=O)ccc4C3CC[C@]2(C)C1=O` (some centres not stated), the TGI with A498 renal, in the assay with COLO 205 colon, in the assay with K-562 leukemia, in the assay on LOX IMVI melanoma, in the assay with M14 melanoma and with MALME-3M melanoma was above 10 µM each time. The TGI with OVCAR-8 ovarian, in the assay with RXF 393 renal, in the assay with SK-OV-3 ovarian, in the assay with T-47D breast, in the assay with U251 CNS and with UO-31 renal was above 10 µM in each case.

Turning to `O=c1nc(N2CCN(c3ccccc3)CC2)ccn1C1OC(CO)C(O)C1O` (configuration not stated), the TGI with A498 renal, with COLO 205 colon, with K-562 leukemia, in the assay with LOX IMVI melanoma, with M14 melanoma and with MALME-3M melanoma was above 100 µM each time. The TGI with OVCAR-8 ovarian was above 100 µM; in the assay on RXF 393 renal it was above 100 µM; in the assay with SK-OV-3 ovarian, above 100 µM; in the assay on T-47D breast it was 65.6 µM; in the assay with U251 CNS, above 100 µM; with UO-31 renal, above 100 µM.
